“Also recorded” adds a separate entry of the source. One block for each molecule: values may come before it.
Columns and labels:
Aβ42 [1] = biological target: T1, Aβ42 (Homo sapiens, UniProt P05067); test: ThT-based kinetic assay of Aβ42 aggregation; type: biochemical; details: for factor by which Aβ42 aggregation is delayed (rel. t50): 20 μM Aβ42, equimolar ratio; for effect on Aβ42 oligomerization/fibrillation (ThT): equimolar ratio
T1 construct: Cleavage of APP results in several Aβ isoforms; The predominant species are Aβ42 and Aβ40; purchased Anaspec (Fremont, Calif., USA)
Excerpt: The aggregation of Aβ42 was monitored using an established exogenous dye, Thioflavin T (ThT) that intercalates between the amyloid fibers along the perpendicular axis without affecting the kinetics of amyloid formation. (see Wolfe, L. S.; Calabrese, M. F.; Nath, A.; Blaho, D. V.; Miranker, A. D.; Xiong, Y. Proc. Natl. Acad. Sci. U.S.A. 2010, 107, 16863-16868; Levine, H. Protein Sci. 1993, 2, 404-410). A representative ThT-based kinetic assay results are depicted in FIG. 2. The oligomerization reaction of Aβ42 was initiated by diluting a 1 mM stock solution of Aβ42 (in DMSO) to a concentration of 20 μM in phosphate buffer (150 mM KCl, 50 mM NaPi, pH 7.4). Aβ42 fibrillation is a nucleation-dependent polymerization process and is characterized by a sigmoidal curve consisting of a lag phase, an elongation phase, and a plateau phase (FIG. 2a). The kinetic reaction was quantified by extracting t50, which is the time required to reach 50% of the maximum fluorescence that results from fibrillation. Under standard conditions the tso for Aβ42 fibrillation was 2.1±0.2 h (FIG. 2a and FIG. 8).
(§1) Kinetic assays were conducted on a FlexStation 3 Multi-Mode Microplate reader from Molecular Devices (Sunnyvale, Calif., USA). Experiments were conducted in triplicate in a 96-well plate with a final volume of 200 μL per well. Every measurement was an average of 50 readings. The aggregation of an amyloidogenic peptide (Aβ40, Aβ42, or IAPP) was initiated by the addition of the peptide from a stock solution (in DMSO, 0.5-1 mM) to phosphate buffer. The final concentration of each peptide was different based on their aggregation. The stoichiometry of ThT dye for each peptide was 0.5:1 (ThT:peptide). Peptide aggregation was monitored by ThT fluorescence (λex=445 nm and λem=485 nm). The blank sample contained all the components of the peptide samples except the peptide. The sample data were processed by subtracting the fluorescence of the blank sample. The fluorescence intensity data was then normalized by setting the maximum value to 1.
(§2) Kinetic assays in the presence of the compounds of the invention were conducted under the same conditions. The small molecules were added from a stock solution (1 mM or 10 mM in DMSO) to keep the final concentration of DMSO less than 1.0% (v/v). Small molecules were added to the wells with ThT and buffer and mixed gently with a pipette before adding the peptide. To keep the conditions identical, an equal amount of DMSO was added to the wells with the peptide-only control reactions.
(§3) Kinetic profiles were processed using Origin (version 9.1). Kinetic curves were fit using the built-in sigmoidal fit. Each run was fit independently to extract the t50 (time required to reach 50% of the maximum fluorescence intensity). Error bars represent standard deviations from the mean of at least three independent experiments.
In the delayed addition experiments, where the oligopyridylamides were added at various time points during Aβ amyloid reaction, the conditions were same (as used for the assays where Aβ was preincubated with the oligopyridylamides). The Aβ oligomerization process was initiated by dissolving Aβ into buffer solution and then oligopyridylamides were added to this solution at indicated time points (depend on the assay) at an equimolar ratio.

Neuro-2a cells = test: Effect of compound alone on Neuro-2a cell viability; type: cell-based, mouse; details: matched cytotoxic experimental conditions, no Aβ42
Protocol: To investigate the toxic effect of the peptide alone on cell viability, solution (B) without the oligopyridylamide compound was mixed with solution (A), while the effect of the oligopyridylamide compound alone was determined by adding solution (A) without peptide to solution (B). The effect of oligopyridylamides on seed-catalyzed Aβ42 aggregation was probed by preparing an additional solution (C) containing 0.5 μM seeds. The volume contributed by solution (C) was taken into account in preparing solution (B). Solution (C) was mixed with solution (B), and the resulting mixture was then added to solution (A) shortly before addition to the wells. To study the effect of oligopyridylamides on the oligomeric states of Aβ42, solution (A) was mixed with solution (B) without inhibitor and incubated at room temperature for 1, 2 or 3 h. Subsequently, 50 μM oligopyridylamides was added to the mixture, which was then immediately added to the cells. […] The MTS reagent was incubated for 2.5 h at 37° C., and absorbance of the soluble formazan product (λ=490 nm) of MTS reduction was measured on a Synergy H1MF Multi-Mode microplate-reader (BioTek, Winooski, Vt., USA), with a reference wavelength of 650 nm to subtract the background. Wells treated with a solution containing serum-free DMEM, 200 μM NaOH, 0.1×PBS and 0.5% (v/v) DMSO served as control. MTS reduction was determined from the ratio of the absorbance of the treated wells to the control wells. Each data point represents an average of four independent quadruplet-well trials.

[2] = test system: Aβ42 mediated toxicity in mouse neuroblastoma (N2a) cells; test: Aβ42 mediated toxicity in Neuro-2a cells (MTS cell viability); type: cell-based; details: for rank order for the antagonist activity: Aβ42 mediated cytotoxicity and aggregation, 5 μM, 1:1 (FIG. 26a); for effect on Aβ42 mediated cytotoxicity: equimolar ratio, Neuro-2a cells
Protocol: Cell viability was determined using a CellTiter 96® AQueous One Solution Cell Proliferation Assay (MTS) kit (Promega), which measures the reduction of the tetrazolium compound MTS (3-(4,5-dimethylthiazol-2-yl)-5-(3-carboxymethoxyphenyl)-2-(4-sulfophenyl)-2H-tetrazolium, inner salt) to soluble formazan by mitochondrial dehydrogenase enzyme in living cells. Formazan can be measured at 490 nm according to the manufacturer's instructions.
Neuro-2a cells (ATCC® […]) were maintained in serum-containing media [Dulbecco's Modified Eagle's Medium—high glucose (DMEM, Sigma) supplemented with 10% foetal bovine serum (FBS), 4 mM L-Glutamine (Sigma), and 1% penicillin/streptomycin (Sigma)] in 5% CO2 at 37° C. Once the cells reached ˜95% confluence, they were split (using 0.25% trypsin-EDTA, Sigma, St. Louis, USA), seeded at a density of 5×10^3 cells/well in 100 μL complete medium in 96-well plates and cultured for 48 h. Thereafter, the media was removed, the cells washed with phosphate buffered saline (PBS), and 90 μL of serum-free DMEM was added to the wells. A solution (A) containing 50 μM Aβ42 in NaOH (pH 10.5) was prepared and kept on ice, and a solution (B) containing 50 μM of the oligopyridylamide compound, H2O (2.33 μL/well) and 1× and 10×PBS was prepared and kept at room temperature. The solutions were combined, vortexed and 10 μL of this solution immeadiatly added to each well. The final concentrations in the wells were: 5 μM Aβ42, 5 μM oligopyridylamide, 200 μM NaOH, 0.1×PBS and 0.5% (v/v) DMSO.
To investigate the toxic effect of the peptide alone on cell viability, solution (B) without the oligopyridylamide compound was mixed with solution (A), while the effect of the oligopyridylamide compound alone was determined by adding solution (A) without peptide to solution (B). The effect of oligopyridylamides on seed-catalyzed Aβ42 aggregation was probed by preparing an additional solution (C) containing 0.5 μM seeds. The volume contributed by solution (C) was taken into account in preparing solution (B). Solution (C) was mixed with solution (B), and the resulting mixture was then added to solution (A) shortly before addition to the wells. To study the effect of oligopyridylamides on the oligomeric states of Aβ42, solution (A) was mixed with solution (B) without inhibitor and incubated at room temperature for 1, 2 or 3 h. Subsequently, 50 μM oligopyridylamides was added to the mixture, which was then immediately added to the cells. After culturing for 72 h in 5% CO2 at 37° C., 20 μL of MTS reagent was added to each well. The MTS reagent was incubated for 2.5 h at 37° C., and absorbance of the soluble formazan product (λ=490 nm) of MTS reduction was measured on a Synergy H1MF Multi-Mode microplate-reader (BioTek, Winooski, Vt., USA), with a reference wavelength of 650 nm to subtract the background. Wells treated with a solution containing serum-free DMEM, 200 μM NaOH, 0.1×PBS and 0.5% (v/v) DMSO served as control. MTS reduction was determined from the ratio of the absorbance of the treated wells to the control wells. Each data point represents an average of four independent quadruplet-well trials.

[3] = test system: IAPP mediated toxicity in rat INS-1 cells; test: IAPP mediated toxicity in INS-1 cells; type: cell-based; details: equimolar ratio, rat INS-1 cells
IAPP = biological target: T2, IAPP (Homo sapiens, UniProt P10997); test: ThT-based kinetic assay of IAPP aggregation; type: biochemical; details: equimolar ratio (IAPP 10 μM, FIG. 25c, 26c, 27m)
T2 construct: purchased Anaspec (Fremont, Calif., USA)
T2 sequence (P10997 34-70 limits assumed): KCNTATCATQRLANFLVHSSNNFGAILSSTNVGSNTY
Protocol: as §1, §2, §3

Aβ42 [4] = biological target: T1, Aβ42; test: ThT-based kinetic assay of Aβ42 aggregation; type: biochemical; details: 5 μM, 1:1 (Ligand:Aβ42); without ligand 100%

T1 sequence (P05067 672-713 limits assumed): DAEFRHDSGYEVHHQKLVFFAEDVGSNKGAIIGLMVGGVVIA

factor by which Aβ42 aggregation is delayed (rel. t50) (Aβ42 [1]): 2.4±0.3
SMILES: COC(=O)c1ccc(NC(=O)c2ccc([N+](=O)[O-])c(OCCCN)n2)c(OCCCN)n1 [ADH-44]

factor by which Aβ42 aggregation is delayed (rel. t50) (Aβ42 [1]): 3.2±0.3
effect on Aβ42 oligomerization/fibrillation (ThT) (Aβ42 [1]): effective in blocking
SMILES: COC(=O)c1ccc(NC(=O)c2ccc(NC(=O)c3ccc([N+](=O)[O-])c(OCCCN)n3)c(OCCCN)n2)c(OCCCN)n1 [ADH-19]

effect on Aβ42 oligomerization/fibrillation (ThT) (Aβ42 [1]): accelerated
SMILES: COC(=O)c1ccc(NC(=O)c2ccc(NC(=O)c3ccc([N+](=O)[O-])c(OC(C)C)n3)c(OCc3ccccc3)n2)c(OCCCN)n1 [ADH-39]
effect on Aβ42 mediated cytotoxicity [2]: effective at inhibiting cytotoxicity; also recorded: effective at rescuing cells; also recorded: equally effective
toxicity of compound alone to Neuro-2a cells (Neuro-2a cells): not toxic

factor by which Aβ42 aggregation is delayed (rel. t50) (Aβ42 [1]): 3.3±0.4
effect on Aβ42 oligomerization/fibrillation (ThT) (Aβ42 [1]): effective in blocking
SMILES: COC(=O)c1ccc(NC(=O)c2ccc([N+](=O)[O-])c(OCc3ccccc3)n2)c(OCCCN)n1 [ADH-43]

effect on Aβ42 oligomerization/fibrillation (ThT) (Aβ42 [1]): no effect
effect on IAPP fibrillation / amyloid formation (ThT) (IAPP): completely inhibits
SMILES: COC(=O)c1ccc(NC(=O)c2ccc(NC(=O)c3ccc([N+](=O)[O-])c(OCC(=O)O)n3)c(OCc3ccccc3)n2)c(OCC(=O)O)n1 [ADH-17]
effect on IAPP mediated toxicity [3]: completely inhibits
effect on Aβ42 mediated cytotoxicity [2]: no effect
toxicity of compound alone to Neuro-2a cells (Neuro-2a cells): not toxic

ThT fluorescence intensity of the amyloid reaction (Aβ42 [4]): 74%
effect on Aβ42 oligomerization/fibrillation (ThT) (Aβ42 [1]): weak inhibitor
SMILES: COC(=O)c1ccc(NC(=O)c2ccc(NC(=O)c3ccc([N+](=O)[O-])c(OCCCN)n3)c(OCc3ccccc3)n2)c(OCCCN)n1 [ADH-37]
effect on Aβ42 mediated cytotoxicity [2]: did not have a noticeable effect

The next lines start with the molecule.

SMILES: COC(=O)c1ccc(NC(=O)c2ccc(NC(=O)c3ccc([N+](=O)[O-])c(OCc4ccccc4)n3)c(OCC(=O)O)n2)c(OCC(=O)O)n1 [ADH-27]
toxicity of compound alone to Neuro-2a cells (Neuro-2a cells): not toxic

SMILES: COC(=O)c1ccc(NC(=O)c2ccc(NC(=O)c3ccc([N+](=O)[O-])c(OCC(C)C)n3)c(OCCCN)n2)c(OCCCN)n1 [ADH-46]
rank order for the antagonist activity [2]: ADH41>ADH46>ADM-40≥ADM-45A
effect on Aβ42 mediated cytotoxicity [2]: effective at rescuing cells

SMILES: CCCCOc1nc(C(=O)Nc2ccc(C(=O)Nc3ccc(C(=O)OC)nc3OCCCN)nc2OCCCN)ccc1[N+](=O)[O-] [ADH-40]
rank order for the antagonist activity [2]: ADH41>ADH46>ADM-40≥ADM-45A
toxicity of compound alone to Neuro-2a cells (Neuro-2a cells): not toxic

SMILES: COC(=O)c1ccc([N+](=O)[O-])c(OC2CCCCC2)n1 [ADH-5]
effect on Aβ42 oligomerization/fibrillation (ThT) (Aβ42 [1]): No noticeable effect

SMILES: CCCCCCOc1nc(C(=O)Nc2ccc(C(=O)Nc3ccc(C(=O)OC)nc3OCCCN)nc2OCc2ccccc2)ccc1[N+](=O)[O-] [ADH-52]
effect on Aβ42 mediated cytotoxicity [2]: effective at rescuing cells
toxicity of compound alone to Neuro-2a cells (Neuro-2a cells): not toxic

SMILES: COC(=O)c1ccc([N+](=O)[O-])c(OCCCN)n1 [ADH-3]
effect on Aβ42 oligomerization/fibrillation (ThT) (Aβ42 [1]): No noticeable effect

SMILES: CCOc1nc(C(=O)Nc2ccc(C(=O)Nc3ccc(C(=O)OC)nc3OCCCN)nc2OCCCN)ccc1[N+](=O)[O-] [ADH-45A]
rank order for the antagonist activity [2]: ADH41>ADH46>ADM-40≥ADM-45A
toxicity of compound alone to Neuro-2a cells (Neuro-2a cells): not toxic
